Data reported in the supplement of paper PMC10307832.

Assays:
Assay in all cases: relative viability (nuclei count vs DMSO), 5 days (fraction); higher = more cells survive
NCI-H1975 = tested on: NCI-H1975
How it was run: (§1)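 Cells from lung cancer lines were seeded into 1536-well plates and, one day later, dosed by pin tool. Treatments were either a single drug or a fixed dose of an anchor drug with five library-drug doses (not always all listed) in √10 steps. After 5 days, nuclei were stained in a one-step fixation (final 0.05% Triton X-100, 1% formaldehyde, 1 ug/ml Hoechst) and counted on 4× images, and relative viability is the treated-to-vehicle nuclei ratio, as the median of duplicate plates.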

NCI-H2126 = tested on: NCI-H2126
How it was run: as §1

NCI-H2023 = tested on: NCI-H2023
How it was run: as §1

LXF-289 = tested on: LXF-289
How it was run: as §1

NCI-H1915 = tested on: NCI-H1915
How it was run: as §1

NCI-H358 = tested on: NCI-H358
How it was run: as §1

HCC-78 = tested on: HCC-78
How it was run: as §1

NCI-H322M = tested on: NCI-H322M
How it was run: as §1

NCI-H1755 = tested on: NCI-H1755
How it was run: as §1

ChaGo-K-1 = tested on: ChaGo-K-1
How it was run: as §1

NCI-H1666 = tested on: NCI-H1666
How it was run: as §1

ABC-1 = tested on: ABC-1
How it was run: as §1

NCI-H3122 = tested on: NCI-H3122
How it was run: as §1

COR-L 105 = tested on: COR-L 105
How it was run: as §1

UMC-11 = tested on: UMC-11
How it was run: as §1

NCI-H2085 = tested on: NCI-H2085
How it was run: as §1

HCC-15 = tested on: HCC-15
How it was run: as §1

HOP-62 = tested on: HOP-62
How it was run: as §1

EPLC-272H = tested on: EPLC-272H
How it was run: as §1

NCI-H441 = tested on: NCI-H441
How it was run: as §1

CAL-12T = tested on: CAL-12T
How it was run: as §1

EMC-BAC-2 = tested on: EMC-BAC-2
How it was run: as §1

COc1cc2nccc(Oc3ccc(NC(=O)Nc4cc(C)on4)c(Cl)c3)c2cc1OC [Tivozanib] + COc1cc2c(Oc3ccc(NC(=O)C4(C(=O)Nc5ccc(F)cc5)CC4)cc3F)ccnc2cc1OCCCN1CCOCC1 [Foretinib] (partner 0.25 µM)
relative viability (NCI-H1975; first compound 0.005 µM): 0.938 | relative viability (NCI-H1975; first compound 0.01581 µM): 0.967 | relative viability (NCI-H1975; first compound 0.05 µM): 1.04 | relative viability (NCI-H1975; first compound 0.1581 µM): 0.965 | relative viability (NCI-H1975; first compound 0.5 µM): 0.918 | relative viability (NCI-H2126; first compound 0.005 µM): 1.24 | relative viability (NCI-H2126; first compound 0.01581 µM): 1.11 | relative viability (NCI-H2126; first compound 0.05 µM): 1.18 | relative viability (NCI-H2126; first compound 0.5 µM): 1.25 | relative viability (NCI-H2023; first compound 0.005 µM): 0.856 | relative viability (NCI-H2023; first compound 0.01581 µM): 0.703 | relative viability (NCI-H2023; first compound 0.05 µM): 0.989 | relative viability (NCI-H2023; first compound 0.1581 µM): 0.825 | relative viability (NCI-H2023; first compound 0.5 µM): 0.697 | relative viability (LXF-289; first compound 0.005 µM): 0.945 | relative viability (LXF-289; first compound 0.01581 µM): 0.933 | relative viability (LXF-289; first compound 0.05 µM): 0.999 | relative viability (LXF-289; first compound 0.1581 µM): 0.986 | relative viability (LXF-289; first compound 0.5 µM): 0.963 | relative viability (NCI-H1915; first compound 0.005 µM): 1.08 | relative viability (NCI-H1915; first compound 0.01581 µM): 1.07 | relative viability (NCI-H1915; first compound 0.05 µM): 1.1 | relative viability (NCI-H1915; first compound 0.1581 µM): 1.13 | relative viability (NCI-H1915; first compound 0.5 µM): 1.09 | relative viability (NCI-H358; first compound 0.005 µM): 0.571 | relative viability (NCI-H358; first compound 0.01581 µM): 0.672 | relative viability (NCI-H358; first compound 0.05 µM): 0.732 | relative viability (NCI-H358; first compound 0.1581 µM): 0.639 | relative viability (NCI-H358; first compound 0.5 µM): 0.716 | relative viability (HCC-78; first compound 0.005 µM): 0.539 | relative viability (HCC-78; first compound 0.01581 µM): 0.543 | relative viability (HCC-78; first compound 0.05 µM): 0.534 | relative viability (HCC-78; first compound 0.1581 µM): 0.556 | relative viability (HCC-78; first compound 0.5 µM): 0.546 | relative viability (NCI-H322M; first compound 0.005 µM): 0.843 | relative viability (NCI-H322M; first compound 0.01581 µM): 1.01 | relative viability (NCI-H322M; first compound 0.05 µM): 0.989 | relative viability (NCI-H322M; first compound 0.1581 µM): 0.926 | relative viability (NCI-H322M; first compound 0.5 µM): 0.969 | relative viability (NCI-H1755; first compound 0.005 µM): 0.916 | relative viability (NCI-H1755; first compound 0.01581 µM): 0.865 | relative viability (NCI-H1755; first compound 0.05 µM): 0.945 | relative viability (NCI-H1755; first compound 0.1581 µM): 0.988 | relative viability (NCI-H1755; first compound 0.5 µM): 0.881 | relative viability (ChaGo-K-1; first compound 0.005 µM): 0.841 | relative viability (ChaGo-K-1; first compound 0.01581 µM): 0.914 | relative viability (ChaGo-K-1; first compound 0.05 µM): 0.869 | relative viability (ChaGo-K-1; first compound 0.1581 µM): 0.889 | relative viability (ChaGo-K-1; first compound 0.5 µM): 0.86 | relative viability (NCI-H1666; first compound 0.005 µM): 0.973 | relative viability (NCI-H1666; first compound 0.01581 µM): 0.971 | relative viability (NCI-H1666; first compound 0.05 µM): 1.04 | relative viability (NCI-H1666; first compound 0.1581 µM): 0.963 | relative viability (NCI-H1666; first compound 0.5 µM): 0.999 | relative viability (ABC-1; first compound 0.005 µM): 1.01 | relative viability (ABC-1; first compound 0.01581 µM): 1.21 | relative viability (ABC-1; first compound 0.05 µM): 1 | relative viability (ABC-1; first compound 0.1581 µM): 1.06 | relative viability (ABC-1; first compound 0.5 µM): 1.02 | relative viability (NCI-H3122; first compound 0.005 µM): 0.913 | relative viability (NCI-H3122; first compound 0.01581 µM): 0.962 | relative viability (NCI-H3122; first compound 0.05 µM): 0.92 | relative viability (NCI-H3122; first compound 0.1581 µM): 1.05 | relative viability (NCI-H3122; first compound 0.5 µM): 0.953 | relative viability (COR-L 105; first compound 0.005 µM): 1.06 | relative viability (COR-L 105; first compound 0.01581 µM): 1.06 | relative viability (COR-L 105; first compound 0.05 µM): 1.13 | relative viability (COR-L 105; first compound 0.1581 µM): 1.23 | relative viability (COR-L 105; first compound 0.5 µM): 1.11 | relative viability (UMC-11; first compound 0.005 µM): 1.07 | relative viability (UMC-11; first compound 0.01581 µM): 1.04 | relative viability (UMC-11; first compound 0.05 µM): 1.1 | relative viability (UMC-11; first compound 0.5 µM): 1.01 | relative viability (NCI-H2085; first compound 0.005 µM): 0.883 | relative viability (NCI-H2085; first compound 0.01581 µM): 0.884 | relative viability (NCI-H2085; first compound 0.05 µM): 0.831 | relative viability (NCI-H2085; first compound 0.1581 µM): 1.02 | relative viability (NCI-H2085; first compound 0.5 µM): 1.01 | relative viability (HCC-15; first compound 0.005 µM): 0.915 | relative viability (HCC-15; first compound 0.01581 µM): 0.994 | relative viability (HCC-15; first compound 0.05 µM): 0.993 | relative viability (HCC-15; first compound 0.1581 µM): 1.03 | relative viability (HCC-15; first compound 0.5 µM): 0.977 | relative viability (HOP-62; first compound 0.005 µM): 1.18 | relative viability (HOP-62; first compound 0.01581 µM): 1.05 | relative viability (HOP-62; first compound 0.05 µM): 1.12 | relative viability (HOP-62; first compound 0.1581 µM): 1.11 | relative viability (HOP-62; first compound 0.5 µM): 1.06 | relative viability (EPLC-272H; first compound 0.005 µM): 0.61 | relative viability (EPLC-272H; first compound 0.01581 µM): 0.76 | relative viability (EPLC-272H; first compound 0.05 µM): 0.724 | relative viability (EPLC-272H; first compound 0.1581 µM): 0.694 | relative viability (EPLC-272H; first compound 0.5 µM): 0.655 | relative viability (NCI-H441; first compound 0.005 µM): 0.838 | relative viability (NCI-H441; first compound 0.01581 µM): 0.893 | relative viability (NCI-H441; first compound 0.05 µM): 1.12 | relative viability (NCI-H441; first compound 0.1581 µM): 1.11 | relative viability (NCI-H441; first compound 0.5 µM): 0.934 | relative viability (CAL-12T; first compound 0.005 µM): 1.07 | relative viability (CAL-12T; first compound 0.01581 µM): 0.998 | relative viability (CAL-12T; first compound 0.05 µM): 1.11 | relative viability (CAL-12T; first compound 0.1581 µM): 1.24 | relative viability (CAL-12T; first compound 0.5 µM): 0.916 | relative viability (EMC-BAC-2; first compound 0.005 µM): 1.03 | relative viability (EMC-BAC-2; first compound 0.01581 µM): 0.952 | relative viability (EMC-BAC-2; first compound 0.05 µM): 1.03 | relative viability (EMC-BAC-2; first compound 0.1581 µM): 0.952 | relative viability (EMC-BAC-2; first compound 0.5 µM): 1.07
